Results as given in ChEMBL document CHEMBL1158599, “(2S,4S)-1-[2-(1,1-dimethyl-3-oxo-3-pyrrolidin-1-yl-propylamino)acetyl]-4-fluoro-pyrrolidine-2-carbonitrile: a potent, selective, and orally bioavailable dipeptide-derived inhibitor of dipeptidyl peptidase IV” (Bioorg Med Chem Lett, 2010).
pIC50: −log10 of the molar value.

Legend:
[1] = target: T1, Dipeptidyl peptidase 4 (Homo sapiens, UniProt P27487)
[2] = target: T2, Dipeptidyl peptidase 9 (Homo sapiens, UniProt Q86TI2); assay: Inhibition of DPP9
Target sequence in this assay (Q86TI2 whole entry): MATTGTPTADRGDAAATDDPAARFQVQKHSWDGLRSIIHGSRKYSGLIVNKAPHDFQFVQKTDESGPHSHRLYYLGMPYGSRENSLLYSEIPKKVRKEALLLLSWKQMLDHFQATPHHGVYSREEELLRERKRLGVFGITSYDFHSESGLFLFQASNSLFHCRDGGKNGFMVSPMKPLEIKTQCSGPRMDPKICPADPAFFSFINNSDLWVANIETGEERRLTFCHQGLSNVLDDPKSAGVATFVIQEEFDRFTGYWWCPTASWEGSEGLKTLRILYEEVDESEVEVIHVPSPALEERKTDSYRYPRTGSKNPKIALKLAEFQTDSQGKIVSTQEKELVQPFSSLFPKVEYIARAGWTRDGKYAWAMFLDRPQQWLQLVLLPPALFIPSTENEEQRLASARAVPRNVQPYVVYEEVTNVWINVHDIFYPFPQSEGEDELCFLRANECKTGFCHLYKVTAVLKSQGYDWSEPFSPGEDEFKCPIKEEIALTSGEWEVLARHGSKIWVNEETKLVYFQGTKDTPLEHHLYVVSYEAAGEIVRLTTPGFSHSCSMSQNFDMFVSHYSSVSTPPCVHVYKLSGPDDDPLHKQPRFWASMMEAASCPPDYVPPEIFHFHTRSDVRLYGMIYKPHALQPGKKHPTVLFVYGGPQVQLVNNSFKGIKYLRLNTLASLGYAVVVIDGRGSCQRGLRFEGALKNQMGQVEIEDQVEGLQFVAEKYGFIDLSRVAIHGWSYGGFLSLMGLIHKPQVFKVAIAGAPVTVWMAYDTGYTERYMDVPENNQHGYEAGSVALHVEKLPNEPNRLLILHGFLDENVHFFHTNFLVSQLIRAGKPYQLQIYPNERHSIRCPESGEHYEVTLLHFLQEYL

[3] = target: Dipeptidyl peptidase 8 (Homo sapiens, UniProt Q6V1X1)
[4] = species on record: Rattus norvegicus; assay: animal or person; settings: Plasma, po, 0.5 h, read-out: INH
[5] = target: T1, Dipeptidyl peptidase 4; remark: listed apart in the source
[6] = species on record: Rattus norvegicus; assay: animal or person; settings: Plasma, po, 8 h, read-out: INH
[7] = target: T1, Dipeptidyl peptidase 4; remark: listed apart in the source
[8] = target: Dipeptidyl peptidase 2 (Homo sapiens, UniProt Q9UHL4); assay: Inhibition of DPP2
[9] = target: T2, Dipeptidyl peptidase 9; assay: Inhibition of DPP9 at 20 uM
Target sequence in this assay (Q86TI2 2-863 limits assumed): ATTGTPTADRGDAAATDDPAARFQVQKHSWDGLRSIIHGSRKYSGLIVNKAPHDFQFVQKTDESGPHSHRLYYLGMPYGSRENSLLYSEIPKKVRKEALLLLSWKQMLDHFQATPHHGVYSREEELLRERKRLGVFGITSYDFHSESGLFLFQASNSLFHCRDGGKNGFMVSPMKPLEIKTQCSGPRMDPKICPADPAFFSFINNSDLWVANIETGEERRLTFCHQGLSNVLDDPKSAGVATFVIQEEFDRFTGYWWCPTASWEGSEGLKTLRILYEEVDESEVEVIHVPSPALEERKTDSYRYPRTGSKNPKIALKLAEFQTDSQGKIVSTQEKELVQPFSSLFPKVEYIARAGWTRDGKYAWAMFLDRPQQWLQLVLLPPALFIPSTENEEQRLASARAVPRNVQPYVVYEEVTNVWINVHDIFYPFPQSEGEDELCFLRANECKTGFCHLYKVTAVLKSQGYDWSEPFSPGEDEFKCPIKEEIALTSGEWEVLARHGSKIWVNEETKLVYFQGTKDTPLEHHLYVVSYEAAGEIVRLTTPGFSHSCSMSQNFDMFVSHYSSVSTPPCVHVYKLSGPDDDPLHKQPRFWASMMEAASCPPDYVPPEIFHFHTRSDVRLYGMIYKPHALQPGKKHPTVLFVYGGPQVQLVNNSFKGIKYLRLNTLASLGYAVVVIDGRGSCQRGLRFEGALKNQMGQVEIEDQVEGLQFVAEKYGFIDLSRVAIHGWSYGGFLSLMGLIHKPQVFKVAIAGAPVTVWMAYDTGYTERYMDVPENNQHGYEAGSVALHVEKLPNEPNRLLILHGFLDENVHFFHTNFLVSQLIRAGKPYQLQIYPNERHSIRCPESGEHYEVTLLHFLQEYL

[10] = target: T3, Prolyl endopeptidase FAP (Homo sapiens, UniProt Q12884); assay: Inhibition of FAP
T3 sequence (Q12884 whole entry): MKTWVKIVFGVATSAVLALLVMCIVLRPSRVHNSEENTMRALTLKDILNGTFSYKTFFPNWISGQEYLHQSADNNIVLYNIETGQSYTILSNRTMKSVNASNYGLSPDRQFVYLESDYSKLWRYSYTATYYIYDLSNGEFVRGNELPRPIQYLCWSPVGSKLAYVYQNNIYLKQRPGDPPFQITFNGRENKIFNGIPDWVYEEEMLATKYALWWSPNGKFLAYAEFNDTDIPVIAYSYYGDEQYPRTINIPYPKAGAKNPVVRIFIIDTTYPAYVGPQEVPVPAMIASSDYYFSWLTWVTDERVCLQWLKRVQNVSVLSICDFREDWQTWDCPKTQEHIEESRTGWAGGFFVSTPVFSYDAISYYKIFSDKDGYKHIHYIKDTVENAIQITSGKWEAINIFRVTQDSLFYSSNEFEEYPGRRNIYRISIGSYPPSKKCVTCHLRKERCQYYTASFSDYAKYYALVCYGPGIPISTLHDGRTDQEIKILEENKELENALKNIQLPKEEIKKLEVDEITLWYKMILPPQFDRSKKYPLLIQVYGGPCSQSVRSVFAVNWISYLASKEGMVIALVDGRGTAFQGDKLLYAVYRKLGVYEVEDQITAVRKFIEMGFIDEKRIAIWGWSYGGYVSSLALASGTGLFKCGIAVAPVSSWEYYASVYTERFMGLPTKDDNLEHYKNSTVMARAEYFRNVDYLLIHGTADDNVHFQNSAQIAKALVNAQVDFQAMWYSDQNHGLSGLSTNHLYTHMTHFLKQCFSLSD

[11] = target: Coagulation factor X (Homo sapiens) (UniProt P00742); assay: Inhibition of factor 10a at 10 uM
[12] = target: Beta-secretase 1 (Homo sapiens) (UniProt P56817); assay: Inhibition of beta secretase at 10 uM
[13] = target: Prothrombin (Homo sapiens) (UniProt P00734); assay: Inhibition of thrombin at 10 uM
[14] = target: Cathepsin B (Homo sapiens) (UniProt P07858); assay: Inhibition of cathepsin B at 10 uM
[15] = tested on: Mus musculus; assay: Antihyperglycemic activity in C57BL/6J mouse assessed as reduction in blood glucose AUC at 3 mg/kg, po administered 30 mins before glucose challenge; type: functional; parameters: scale not given: the % may be the effect or the level left
[16] = Inhibition of sodium channel site 2; settings: concentration not given here
[17] = Oral bioavailability in dog; type: ADME, organism-based, Canis lupus familiaris; settings: in vivo
[18] = Inhibition of L-type calcium channel; settings: concentration not given here
[19] = Oral bioavailability in rat; type: ADME, organism-based; settings: in vivo
[20] = Inhibition of trypsin at 10 uM
[21] = target: T4, Caspase-10 (Homo sapiens) (UniProt Q92851); assay: Inhibition of caspase 10 at 10 uM
T4 sequence (whole entry): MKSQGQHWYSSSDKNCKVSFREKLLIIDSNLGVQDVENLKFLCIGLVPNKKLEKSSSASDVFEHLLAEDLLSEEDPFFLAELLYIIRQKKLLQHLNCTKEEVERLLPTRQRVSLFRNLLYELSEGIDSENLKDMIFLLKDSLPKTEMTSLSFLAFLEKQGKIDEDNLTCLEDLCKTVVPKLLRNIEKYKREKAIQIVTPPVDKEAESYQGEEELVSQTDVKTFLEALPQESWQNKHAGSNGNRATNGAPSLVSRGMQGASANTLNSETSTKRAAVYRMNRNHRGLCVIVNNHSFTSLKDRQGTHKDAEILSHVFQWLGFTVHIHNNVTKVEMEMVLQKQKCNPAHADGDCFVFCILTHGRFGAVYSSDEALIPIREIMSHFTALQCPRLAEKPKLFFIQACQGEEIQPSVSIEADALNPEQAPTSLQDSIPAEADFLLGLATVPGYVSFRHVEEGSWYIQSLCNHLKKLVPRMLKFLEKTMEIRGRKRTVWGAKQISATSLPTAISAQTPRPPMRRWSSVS

[22] = target: Voltage-gated inwardly rectifying potassium channel KCNH2 (Homo sapiens, UniProt Q12809); assay: Inhibition of human ERG
[23] = target: T5, Caspase-1 (Homo sapiens) (UniProt P29466); assay: Inhibition of caspase1 at 10 uM
T5 sequence (whole entry): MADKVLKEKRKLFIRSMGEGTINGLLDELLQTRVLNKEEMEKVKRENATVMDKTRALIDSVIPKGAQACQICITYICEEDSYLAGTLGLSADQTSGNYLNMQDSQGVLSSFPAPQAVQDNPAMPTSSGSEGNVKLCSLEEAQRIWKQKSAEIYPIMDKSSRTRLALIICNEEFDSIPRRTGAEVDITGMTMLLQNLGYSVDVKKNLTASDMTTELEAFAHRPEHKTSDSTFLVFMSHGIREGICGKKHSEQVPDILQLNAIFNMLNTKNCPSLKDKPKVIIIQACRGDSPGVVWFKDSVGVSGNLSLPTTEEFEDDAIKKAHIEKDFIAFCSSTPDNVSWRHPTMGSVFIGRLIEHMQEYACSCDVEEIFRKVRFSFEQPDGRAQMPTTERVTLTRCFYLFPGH

[24] = target: T6, Pro-cathepsin H (Homo sapiens) (UniProt P09668); assay: Inhibition of cathepsin H at 10 uM
T6 sequence (whole entry): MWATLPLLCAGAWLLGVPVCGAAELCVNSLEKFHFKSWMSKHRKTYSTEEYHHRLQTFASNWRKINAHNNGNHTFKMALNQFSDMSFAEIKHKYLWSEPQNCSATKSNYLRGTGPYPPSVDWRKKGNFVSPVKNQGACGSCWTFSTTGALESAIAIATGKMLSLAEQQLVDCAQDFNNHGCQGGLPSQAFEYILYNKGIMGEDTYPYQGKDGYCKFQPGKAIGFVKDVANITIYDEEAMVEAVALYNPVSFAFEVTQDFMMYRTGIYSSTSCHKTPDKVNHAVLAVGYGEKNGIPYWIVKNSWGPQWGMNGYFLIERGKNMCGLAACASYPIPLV

[25] = species on record: Mus musculus; assay: animal or person; settings: Plasma, po, 4 h, read-out: INH

T1 sequence (P27487 whole entry): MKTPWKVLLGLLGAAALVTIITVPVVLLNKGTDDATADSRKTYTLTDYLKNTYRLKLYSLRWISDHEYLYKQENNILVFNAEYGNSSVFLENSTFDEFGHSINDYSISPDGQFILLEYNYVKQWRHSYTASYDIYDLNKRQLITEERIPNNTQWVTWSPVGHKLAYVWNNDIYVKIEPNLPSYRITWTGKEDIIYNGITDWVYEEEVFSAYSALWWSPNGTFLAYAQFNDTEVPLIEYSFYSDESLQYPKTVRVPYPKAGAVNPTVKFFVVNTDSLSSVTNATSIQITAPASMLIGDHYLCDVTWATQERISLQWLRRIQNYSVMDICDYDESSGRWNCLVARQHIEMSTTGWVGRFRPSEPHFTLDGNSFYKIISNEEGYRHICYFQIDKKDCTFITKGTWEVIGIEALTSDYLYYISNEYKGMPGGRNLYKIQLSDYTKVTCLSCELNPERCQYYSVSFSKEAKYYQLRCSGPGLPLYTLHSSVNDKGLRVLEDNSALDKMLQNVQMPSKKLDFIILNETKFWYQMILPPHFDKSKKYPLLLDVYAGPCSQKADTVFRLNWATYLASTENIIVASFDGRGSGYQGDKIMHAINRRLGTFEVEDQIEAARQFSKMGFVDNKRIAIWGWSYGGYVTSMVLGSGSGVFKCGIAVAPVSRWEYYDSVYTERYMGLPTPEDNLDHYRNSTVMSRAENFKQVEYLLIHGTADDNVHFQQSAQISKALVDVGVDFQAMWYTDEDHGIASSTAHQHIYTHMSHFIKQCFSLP
Dipeptidyl peptidase 8, sequence (Q6V1X1 whole entry): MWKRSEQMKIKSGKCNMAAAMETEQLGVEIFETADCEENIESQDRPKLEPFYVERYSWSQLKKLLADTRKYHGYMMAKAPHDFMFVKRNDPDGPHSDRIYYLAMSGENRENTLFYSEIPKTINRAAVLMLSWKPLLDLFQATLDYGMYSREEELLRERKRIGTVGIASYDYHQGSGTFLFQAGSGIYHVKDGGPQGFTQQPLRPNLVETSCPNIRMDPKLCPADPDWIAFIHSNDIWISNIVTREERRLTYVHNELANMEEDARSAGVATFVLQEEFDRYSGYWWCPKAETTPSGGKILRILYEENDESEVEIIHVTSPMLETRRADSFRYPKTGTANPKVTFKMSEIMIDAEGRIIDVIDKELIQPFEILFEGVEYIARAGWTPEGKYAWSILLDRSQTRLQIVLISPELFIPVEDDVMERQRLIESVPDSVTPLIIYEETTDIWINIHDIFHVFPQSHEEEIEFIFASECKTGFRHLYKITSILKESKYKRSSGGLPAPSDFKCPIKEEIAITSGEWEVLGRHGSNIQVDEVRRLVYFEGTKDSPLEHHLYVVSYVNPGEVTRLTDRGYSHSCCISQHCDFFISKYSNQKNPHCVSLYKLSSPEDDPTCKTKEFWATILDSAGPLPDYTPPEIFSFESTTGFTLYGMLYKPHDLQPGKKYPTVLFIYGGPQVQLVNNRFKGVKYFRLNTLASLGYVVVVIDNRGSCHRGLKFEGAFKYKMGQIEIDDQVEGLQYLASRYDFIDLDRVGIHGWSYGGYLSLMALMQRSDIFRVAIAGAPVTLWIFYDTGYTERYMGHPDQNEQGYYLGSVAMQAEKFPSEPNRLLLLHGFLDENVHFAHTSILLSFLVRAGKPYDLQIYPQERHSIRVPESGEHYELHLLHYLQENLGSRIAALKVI
Beta-secretase 1 (Homo sapiens), sequence (P56817 whole entry): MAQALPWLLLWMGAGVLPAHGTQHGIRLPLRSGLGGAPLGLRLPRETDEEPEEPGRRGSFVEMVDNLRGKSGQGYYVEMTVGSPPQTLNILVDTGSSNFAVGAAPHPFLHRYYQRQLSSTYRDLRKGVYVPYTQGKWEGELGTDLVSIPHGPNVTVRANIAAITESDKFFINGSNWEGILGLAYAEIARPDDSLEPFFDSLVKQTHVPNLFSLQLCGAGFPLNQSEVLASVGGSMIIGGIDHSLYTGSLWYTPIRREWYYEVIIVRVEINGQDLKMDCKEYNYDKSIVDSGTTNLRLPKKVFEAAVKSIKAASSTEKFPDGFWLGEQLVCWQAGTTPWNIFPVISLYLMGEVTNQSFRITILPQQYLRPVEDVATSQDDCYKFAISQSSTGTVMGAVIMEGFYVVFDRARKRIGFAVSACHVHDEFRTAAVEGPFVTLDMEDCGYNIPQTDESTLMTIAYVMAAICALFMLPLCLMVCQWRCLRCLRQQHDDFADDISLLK
Voltage-gated inwardly rectifying potassium channel KCNH2, sequence (Q12809 whole entry): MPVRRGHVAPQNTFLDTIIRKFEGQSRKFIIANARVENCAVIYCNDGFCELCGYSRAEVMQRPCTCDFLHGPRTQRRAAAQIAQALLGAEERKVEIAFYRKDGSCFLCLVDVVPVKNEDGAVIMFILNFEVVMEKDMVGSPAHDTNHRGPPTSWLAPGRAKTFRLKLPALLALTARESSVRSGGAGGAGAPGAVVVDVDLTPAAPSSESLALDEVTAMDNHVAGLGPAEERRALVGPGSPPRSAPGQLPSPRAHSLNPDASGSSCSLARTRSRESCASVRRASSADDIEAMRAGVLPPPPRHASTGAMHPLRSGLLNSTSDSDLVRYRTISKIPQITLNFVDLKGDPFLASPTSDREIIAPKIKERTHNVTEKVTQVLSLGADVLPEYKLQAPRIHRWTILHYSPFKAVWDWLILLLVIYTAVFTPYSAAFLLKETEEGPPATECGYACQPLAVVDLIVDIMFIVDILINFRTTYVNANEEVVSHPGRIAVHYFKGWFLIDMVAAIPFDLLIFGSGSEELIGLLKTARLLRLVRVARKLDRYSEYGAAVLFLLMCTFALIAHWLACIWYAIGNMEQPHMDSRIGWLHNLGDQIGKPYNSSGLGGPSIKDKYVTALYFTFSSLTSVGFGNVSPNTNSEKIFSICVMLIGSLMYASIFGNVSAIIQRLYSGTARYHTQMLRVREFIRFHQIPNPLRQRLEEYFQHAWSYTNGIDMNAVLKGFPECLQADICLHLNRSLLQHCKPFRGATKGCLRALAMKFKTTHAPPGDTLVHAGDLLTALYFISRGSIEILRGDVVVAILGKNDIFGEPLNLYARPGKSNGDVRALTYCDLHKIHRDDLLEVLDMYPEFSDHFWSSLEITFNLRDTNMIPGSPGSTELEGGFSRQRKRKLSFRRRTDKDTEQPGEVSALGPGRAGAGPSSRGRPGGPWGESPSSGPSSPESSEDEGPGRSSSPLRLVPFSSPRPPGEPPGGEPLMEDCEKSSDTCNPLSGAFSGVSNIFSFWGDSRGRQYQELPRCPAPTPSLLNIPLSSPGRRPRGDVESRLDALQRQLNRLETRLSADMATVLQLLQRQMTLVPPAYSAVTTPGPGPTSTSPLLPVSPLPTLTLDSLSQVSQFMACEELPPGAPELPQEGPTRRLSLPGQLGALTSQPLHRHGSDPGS

Compound | pIC50 [1] | pIC50 [2] | pIC50 [3] | inhibition in vivo at 3 mg/kg [4] [%] | pIC50 [5] | inhibition in vivo at 3 mg/kg [6] [%] | pIC50 [7] | other results
CC(C)(CC(=O)N1CCCCC1)NCC(=O)N1C[C@@H](F)C[C@H]1C#N | 7.85 | < 4.70 | < 4.70 | 86 | 7.57 | 74 | – | –
CC(C)(CC(=O)N1CCC[C@H]1CO)NCC(=O)N1C[C@@H](F)C[C@H]1C#N | – | < 4.70 | < 4.70 | – | 7.62 | – | – | –
CC(C)(CC(=O)N1CC[C@@H](O)C1)NCC(=O)N1CCC[C@H]1C#N | – | < 4.70 | < 4.70 | – | 6.74 | – | – | –
CC(C)(CC(=O)Nc1ccccn1)NCC(=O)N1C[C@@H](F)C[C@H]1C#N | 7.72 | < 4.70 | < 4.70 | 87 | 7.72 | 31 | 7.62 | –
C#C[C@@H]1C[C@H](F)CN1C(=O)CC(C)(C)CC(=O)N[C@H]1C[C@@H]1c1cccc(Cl)c1 | 6.07 | – | < 4.70 | 66 | 7.82 | 30 | 6.68 | pIC50 [8]: < 4.00; inhibition [9]: 72%; pIC50 [10]: < 4.70
CN1CCN(C(=O)CC(C)(C)NCC(=O)N2C[C@@H](F)C[C@H]2C#N)CC1 | – | – | < 4.70 | – | 7.03 | – | – | inhibition [9]: 86%
COc1ccc(NC(=O)CC(C)(C)NCC(=O)N2C[C@@H](F)C[C@H]2C#N)nc1 | 7.74 | – | < 4.70 | 88 | 7.72 | 41 | – | inhibition [9]: 61%
CC(C)(CC(=O)N1CCCC1)NCC(=O)N1CCC[C@H]1C#N | – | < 4.70 | < 4.70 | – | – | – | – | –
CC(C)(CC(=O)N1CC[C@@H](F)C1)NCC(=O)N1C[C@@H](F)C[C@H]1C#N | – | < 4.70 | < 4.70 | – | – | – | – | –
CC(C)(CC(=O)N1CC[C@H](O)C1)NCC(=O)N1C[C@@H](F)C[C@H]1C#N | – | < 4.70 | < 4.70 | – | 7.30 | – | – | –
CC(C)(CC(=O)N1CCOCC1)NCC(=O)N1C[C@@H](F)C[C@H]1C#N | 7.89 | < 4.70 | < 4.70 | 89 | 7.70 | 59 | 7.85 | –
CC(C)(CC(=O)N1CCCC1)NCC(=O)N1C[C@@H](F)C[C@H]1C#N [DBPR-108] | 8.30 | < 4.30 | < 4.00 | 82 | 7.82 | 70 | 8.00 | inhibition [11]: 2%; inhibition [12]: 3%; inhibition [13]: -7%; inhibition [14]: -10%; Activity [15]: 67%; inhibition [16]: 1%; bioavailability [17]: 68%; inhibition [18]: -9%; bioavailability [19]: 19%; inhibition [20]: 0%; inhibition [21]: 8%; inhibition (INH) [22]: -6%; inhibition [23]: 23%; inhibition [24]: 0%
CC(C)(CC(=O)N1Cc2ccccc2C1)NCC(=O)N1CCC[C@H]1C#N | – | < 4.00 | – | – | – | – | – | inhibition in vivo at 18 mg/kg [25]: > 80%
